Assay results taken from patent US10975355B2, “Controlled induction of human pancreatic progenitors produces functional beta-like cells” (THE REGENTS OF THE UNIVERSITY OF CALIFORNIA, priority 2015, dated 2021).

Tests used:
Format in all cases: cell-based, human
[1] = test system: MEL1 INS^GFP/W reporter cells (hESC); assay: Flow cytometric analysis of pancreatic progenitor/endocrine markers in differentiating hESC spheres; conditions: for generation of PDX1+ cells over base media alone: group 1, factor alone days 6-8 (conditions 2 and 3), day 9.5
Procedure: Undifferentiated MEL1 INS^GFP/W reporter cells (Micallef et al, 2012) were maintained on mouse embryo fibroblast feeder layers (Millipore) in hESC media as described (Guo et al, 2013b). Suspension-based differentiations were carried out as follows. Briefly, confluent cultures were dissociated into single cell suspension by incubation with TrypLE (Gibco). Cells were counted and each well of 6-well low-adherence plates were seeded with 5.5×10^6 cells in 5.5 ml hES media supplemented with 10 ng/ml Activin A (R&D systems) and 10 ng/ml HeregulinB1 (Peprotech). Plates were placed on an orbital shaker at 100 rpm to induce sphere formation, as described (Schulz et al, 2012). To induce definitive endoderm differentiation, aggregates were collected 24 hours later in a 50 ml falcon tube, allowed to settle by gravity, washed once with PBS and re-suspended in d1 media (RPMI (Gibco) containing 0.2% FBS, 1:5000 ITS (Gibco), 100 ng/ml Activin A, and 50 ng/ml WNT3a (R&D systems)). Clusters from 3 wells were combined into 2 wells at this point and distributed into fresh low-attachment plates in 5.5 ml d1 media. Media thereafter was changed daily, by removing either 4.5 ml media (at the end of d1) or 5.5 ml media the following days and adding back 5.5 ml fresh media until day 9. After day 9, only 5 ml of media was removed and added daily.
Briefly, spheres were collected and allowed to settle by gravity. Clusters were washed once in PBS and dissociated by gentle pipetting after 12-15 minutes incubation in Accumax (innovative cell technologies). For sorting, cell suspension were filtered and re-suspended in FACS buffer consisting of phosphate-buffered saline (PBS) (UCSF cell culture facility) containing 2 mM EDTA (Ambion) and 1% BSA (Sigma). Dead cells were excluded by DAPI (Sigma) staining. Cell sorting was performed on a FACS Aria II (BD Bioscience). For flow-based analysis, dissociated cells were fixed with 4% paraformaldehyde (Electron Microscopy Science) for 15 minutes at room temperature, followed by two washes in PBS. Samples were either stored at 4 C or immediately stained with directly conjugated antibodies. Data analysis was performed with FlowJo software. Mouse Glucagon and mouse human C-peptide antibodies were conjugated in-house by the UCSF Antibody Core and/or with Antibody Labeling Kits (Molecular Probes) according to manufacturer's instructions. […]
To characterize the type of progenitors present in differentiating cultures at the point of endocrine induction, we performed a detailed time course analysis for the expression of pancreatic markers PDX1, NKX6.1, NEUROG3, GCG and INS (FIG. 7). […] Indeed, the expression of NEUROG3 can be detected as early as day 6, when NKX6.1 protein is absent from all cells (FIGS. 7A and B). […]

[2] = test system: NEUROG3 and NKX2.2 mRNA transcripts; assay: qPCR analysis of NEUROG3 and NKX2.2 transcripts at day 8 of differentiation; conditions: day 8, compared to RCN condition / during RCN or R treatment
Procedure: Total RNA was isolated with TRIZOL (Sigma) or micro/mini RNAeasy kit (Qiagen) and reverse transcribed using the iScript cDNA Kit (Bio-Rad) according to manufacturer's instructions. qPCR analysis was performed on an ABI 7900 HT Fast Real-Time PCR System (Applied Biosystems) and CFX Connect Real Time System (Biorad) using standard protocols. Primers were Taqman Probes (Applied Biosystems) and/or as published previously (Liu et al, 2014). P-values were calculated using a two-tailed student's t-test.
To characterize the type of progenitors present in differentiating cultures at the point of endocrine induction, we performed a detailed time course analysis for the expression of pancreatic markers PDX1, NKX6.1, NEUROG3, GCG and INS (FIG. 7). […] Indeed, the expression of NEUROG3 can be detected as early as day 6, when NKX6.1 protein is absent from all cells (FIGS. 7A and B). […] We thus expected that robust generation of PDX1+/NKX6.1+ progenitor cells prior to induction of NEUROG3 would allow efficient generation of beta-like cells in vitro. […] Spheres cultured under each condition were analyzed at day 9.5 by flow cytometry to quantify the expression of PDX1 and NKX6.1, and by conventional immunofluorescence analysis for NKX6.1 and NEUROG3 expression. […]

[3] = test system: NEUROG3 expression in hESC-derived clusters; assay: Immunofluorescence (whole mount / sections) for NEUROG3 protein in differentiated clusters; conditions: day 9.5, whole mount staining
Procedure: Spheres were fixed for 15-30 minutes at room temperature with 4% paraformaldehyde, followed by multiple washes in PBS. Whole mount staining was performed in suspension, by first blocking overnight at 4° C. in blocking buffer consisting of CAS-block (Invitrogen) with 0.2% TritonX (Fisher). Primary antibodies were incubated overnight at 4° C. in blocking buffer, followed by washes in PBS containing 0.1% Tween-20 (PBS-T, Sigma) and incubation in appropriate secondary antibodies diluted in PBS-T overnight at 4° C. The next day, clusters were washed in PBS-T followed by PBS and mounted with Vectashield (Vector) on glass slides. For sectioning of clusters, spheres were embedded in 2% Agar (Sigma), followed by dehydration, paraffin embedding, and sectioning. […]
To characterize the type of progenitors present in differentiating cultures at the point of endocrine induction, we performed a detailed time course analysis for the expression of pancreatic markers PDX1, NKX6.1, NEUROG3, GCG and INS (FIG. 7). […] Indeed, the expression of NEUROG3 can be detected as early as day 6, when NKX6.1 protein is absent from all cells (FIGS. 7A and B). […] Spheres cultured under each condition were analyzed at day 9.5 by flow cytometry to quantify the expression of PDX1 and NKX6.1, and by conventional immunofluorescence analysis for NKX6.1 and NEUROG3 expression. […]

CC1=C(/C=C/C(C)=C/C=C/C(C)=C/C(=O)O)C(C)(C)CCC1 [retinoic acid]
PDX1 positive progenitors ([1]; group 1, exposure days 6-8, alone or combined (conditions 4, 5, 6), analysed day 9.5): > 88% | PDX1+ pancreatic progenitors generated ([1]; retinoic acid alone): more than 98%

CC1=C2C[C@H]3[C@@H](CC=C4C[C@@H](O)CC[C@@]43C)[C@@H]2CC[C@]12O[C@@H]1C[C@H](C)CN[C@H]1[C@H]2C [C, Cyclopamine]
generation of PDX1+ cells over base media alone [1]: did not result in enhanced generation of PDX1+ cells

O=C1O[C@H]([C@@H](O)CO)C(O)=C1O [Vitamin C]
NEUROG3 and NKX2.2 mRNA transcripts [2]: did not significantly lower

B1: N: the BMP inhibitor Noggin (N) (protein, UniProt Q13253 28-232, looked up)
Noggin: QHYLHIRPAPSDNLPLVDLIEHPDPIFDPKEKDLNETLLRSLLGGHYDPGFMATSPPEDRPGGGGGAAGGAEDLAELDQLLRQRPSGAMPSEIKGLEFSEGLAQGKKQRLSKKLRRKLQMWLWSQTFCPVLYAWNDLGSRFWPRYVKVGSCFSKRSCSVPEGMVCKPSKSVHLTVLRWRCQRRGGQRCGWIPIQYPIISECKCSC
generation of PDX1+ cells over base media alone [1]: did not result in enhanced generation of PDX1+ cells | formation of NEUROG3 positive endocrine precursors [3]: induced
